Test results taken from paper PMC12069340 (Frontiers in Cellular and Infection Microbiology, 2025).
Structures can show the parent of a compound that is named as a salt. Where two headings read alike, the source gives them in different places.

How the values were obtained:
[1] = system: A/PuertoRico/8/1934 (H1N1) virus; experiment: microbe, parasite or virus in culture; format: cell-based, influenza A virus
[2] = system: U937 cells
[3] = system: A/PuertoRico/8/1934 (H1N1) virus; experiment: microbe, parasite or virus in culture; format: cell-based, influenza A virus; remark: listed apart in the source
[4] = in vitro; conditions: human, Relative Viability (%)
[5] = Validation screen: cytotoxicity without viral infection; conditions: human
[6] = system: single-stranded RNA (ssRNA) viruses; conditions: cited from earlier work
[7] = system: U937 cells; conditions: 20 µM
[8] = in vitro; conditions: human
[9] = system: A/Human/Hubei/3/2005 (H3N2); experiment: microbe, parasite or virus in culture; format: cell-based; conditions: Influenza A virus, H3N2, A549, 48 h, read-out: H3N2 IC50
[10] = system: B/Human/Hubei/1/2007 (IBV); experiment: microbe, parasite or virus in culture; format: cell-based; conditions: Influenza B virus, MDCK, 48 h, read-out: IBV IC50
[11] = system: oral cancer cells; parameters: method as in Sakakitani et al., 2020; conditions: ref Sakakitani et al., 2020; cited from earlier work
[12] = system: primary tumor; parameters: method as in Sakakitani et al., 2020; conditions: xenograft model; ref Sakakitani et al., 2020; cited from earlier work
[13] = system: Bovine Liver Catalase (BLC); parameters: method as in Shahraki et al., 2020; conditions: ref Shahraki et al., 2020; cited from earlier work
[14] = in vitro; conditions: human; remark: listed apart in the source
[15] = in vitro; conditions: human; remark: listed apart in the source
[16] = in vitro; conditions: dog
[17] = in vitro
[18] = system: striatal neurons; parameters: method as in Iwatsubo et al., 2007; conditions: young and neonatal neurons; ref Iwatsubo et al., 2007; cited from earlier work
[19] = Influenza A virus, H1N1, U-937, 48 h; read-out: NA Inhibition (%)
[20] = Influenza A virus, H1N1, U-937, 48 h
[21] = Influenza A virus, H1N1, U-937, 48 h, read-out: NA Inhibition (%)

Molecule: Propranolol HCl
- NA Inhibition (%) ([1]; 20 µM): 65.3%
- CC50 [2]: > 80 µM

Molecule: CCCN1C[C@H](CSC)C[C@@H]2c3cccc4[nH]cc(c34)C[C@H]21 [Pergolide mesylate]
- inhibition at 20 µM [1, 19]: 67.8%
- IC50 [3, 20]: 7.1 µM
- viability at 20 µM [4]: 118%
- CC50 at 48 h ([5]; uninfected U937 cells): > 80 µM

Molecule: CN1CCN(CCCN2c3ccccc3Sc3ccc(Cl)cc32)CC1 [Prochlorperazine dimaleate, Prochlorperazine dimaleate salt]
- inhibition at 20 µM [1, 21]: 63.9%
- antiviral properties, virus entry [6]: exhibits antiviral properties by disrupting clathrin redistribution
- viability at 20 µM [4]: 93.5%
- CC50 at 48 h ([5]; uninfected U937 cells): 38.4 µM

Molecule: CN1CCc2cc3c(cc2[C@H]1[C@@H]1OC(=O)c2c1ccc1c2OCO1)OCO3 [(+)-Bicuculline]
- NA Inhibition (%) ([1]; 20 µM): -11.3%
- Relative Viability (%) [7]: 98.1%

Molecule: Vortioxetine (Lu AA21004) HBr
- NA Inhibition (%) ([1]; 20 µM): 23.8%
- Relative Viability (%) [7]: 95.3%

Molecule: Cc1ccc(OCC(O)C(C)NC(C)C)c2c1CCC2 (stereo not shown) [ICI-118551]
- inhibition at 20 µM [1, 21]: 60.7%
- IC50 [3, 20]: 5.8 µM
- viability at 20 µM [4]: 106%
- CC50 at 48 h [8]: > 80 µM

Molecule: Galanthamine HBr
- NA Inhibition (%) ([1]; 20 µM): -13.2%
- Relative Viability (%) [7]: 108.7%

Molecule: CN(C)[C@@H](CCOc1cccc2ccccc12)c1ccccc1 [Dapoxetine HCl]
- inhibition at 20 µM [1, 19]: 63.4%
- IC50 [3, 20]: 6.65 µM
- viability at 20 µM [4]: 110%
- CC50 at 48 h ([5]; uninfected U937 cells): 76.1 µM

Molecule: (+)-Matrine
- NA Inhibition (%) ([1]; 20 µM): 9.9%
- Relative Viability (%) [7]: 109.9%

Molecule: Naloxone HCl Dihydrate
- NA Inhibition (%) ([1]; 20 µM): 27.3%
- Relative Viability (%) [7]: 113.1%

Molecule: CC(COc1ccccc1)NC(C)C(O)c1ccc(O)cc1 (stereo not shown) [Isoxsuprine, Isoxsuprine hydrochloride]
- inhibition at 20 µM [1, 21]: 86.5%
- IC50 [3, 20]: 1.5 µM
- IC50 [9]: 34.3 µM
- IC50 [10]: 3.4 µM
- mesenchymal cell markers and motility [11]: downregulates mesenchymal cell markers and reduces motility
- primary tumor growth [12]: effectively suppressed primary tumor growth
- catalase activity [13]: reduce catalase activity
- viability at 20 µM [4]: 105%
- CC50 [14]: > 900 µM
- CC50 at 48 h [15]: > 900 µM
- CC50 at 48 h [16]: > 400 µM
- CC50 ([17]; human, A549 cells): 530 µM
- CC50 at 48 h [5]: > 80 µM

Molecule: O=C(c1ccc(OCCCc2cnc[nH]2)cc1)C1CC1 [Ciproxifan]
- inhibition at 20 µM [1, 19]: 75.2%
- IC50 [3, 20]: 1.4 µM
- IC50 [9]: 14.9 µM
- IC50 [10]: 1.8 µM
- viability at 20 µM [4]: 131%
- CC50 [14]: 425 µM
- CC50 at 48 h [15]: 556 µM
- CC50 at 48 h [16]: > 400 µM
- CC50 ([17]; human, A549 cells): 556 µM
- CC50 at 48 h [5]: > 80 µM

Molecule: OCc1cc(C(O)CNCCCCCCOCCCCc2ccccc2)ccc1O (stereo not shown) [Salmeterol Xinafoate]
- inhibition at 20 µM [1, 21]: 69.9%
- IC50 [3, 20]: 4.4 µM
- viability at 20 µM [4]: 90.4%
- CC50 at 48 h ([5]; uninfected U937 cells): 40.2 µM

Molecule: CCCN(CCc1cccs1)[C@H]1CCc2c(O)cccc2C1 [Rotigotine]
- inhibition at 20 µM [1, 19]: 89.1%
- IC50 [3, 20]: 1.26 µM
- IC50 [9]: 21.9 µM
- IC50 [10]: 7.3 µM
- viability at 20 µM [4]: 147%
- CC50 at 48 h [16]: 93 µM
- CC50 ([17]; human): 372 µM

Molecule: Urapidil HCl
- NA Inhibition (%) ([1]; 20 µM): 5.3%
- Relative Viability (%) [7]: 103.3%

Molecule: Cc1ccsc1C(=CCCN1CCC[C@@H](C(=O)O)C1)c1sccc1C [Tiagabine hydrochloride]
- NA Inhibition (%) ([1]; 20 µM): 19.9%
- Relative Viability (%) ([7]; human): 91.7%

Molecule: Bambuterol HCl
- NA Inhibition (%) ([1]; 20 µM): -2.9%
- Relative Viability (%) [7]: 102.5%

Molecule: Ivabradine HCl
- NA Inhibition (%) ([1]; 20 µM): -0.1%
- Relative Viability (%) [7]: 104.6%

Molecule: CCCCCCNC(=O)Nc1ccc(S(=O)(=O)Nc2ccc(CCNC[C@H](O)COc3ccc(O)cc3)cc2)cc1 [L755507]
- NA Inhibition (%) ([1]; 20 µM): -1.1%
- Relative Viability (%) [7]: 100.1%

Molecule: Promethazine HCl
- NA Inhibition (%) ([1]; 20 µM): 64.8%
- IC50 ([3]; read-out: IC50): 9.3 µM
- Relative Viability (%) [7]: 105.7%
- CC50 [2]: > 80 µM

Molecule: C=C(CC)C(=O)c1ccc(OCC(=O)O)c(Cl)c1Cl [ethacrynic acid, Ethacrynic acid]
- CC50 [17]: 240 µM

Molecule: PRX-08066 Maleic acid
- NA Inhibition (%) ([1]; 20 µM): 20.2%
- Relative Viability (%) [7]: 92.0%

Molecule: O=C(C[S+]([O-])Cc1ccco1)NC/C=C\COc1cc(CN2CCCCC2)ccn1 (stereo not shown) [Lafutidine]
- inhibition at 20 µM [1, 19]: 52%
- IC50 [3, 20]: 14.8 µM
- viability at 20 µM [4]: 109%
- CC50 at 48 h [8]: > 80 µM

Molecule: Succinylcholine Chloride Dihydrate
- NA Inhibition (%) ([1]; 20 µM): 13.3%
- Relative Viability (%) [7]: 99.6%

Molecule: CN1CCCC(n2nc(Cc3ccc(Cl)cc3)c3ccccc3c2=O)CC1 (stereo not shown) [Azelastine HCl]
- inhibition at 20 µM [1, 19]: 55.3%
- IC50 [3, 20]: 8.4 µM
- viability at 20 µM [4]: 99.4%
- CC50 at 48 h ([5]; uninfected U937 cells): 55.7 µM

Molecule: Cc1c(Cl)c(OCC(=O)N2CCN(C)CC2)nc2sc(C(=O)NC3CC3)c(N)c12 [LY2119620]
- NA Inhibition (%) ([1]; 20 µM): 19.0%
- Relative Viability (%) [7]: 99.3%

Molecule: Meclizine 2HCl
- NA Inhibition (%) ([1]; 20 µM): 74.9%
- IC50 ([3]; read-out: IC50): 5.3 µM
- Relative Viability (%) [7]: 109.3%
- CC50 [2]: 79.5 µM

Molecule: Paroxetine HCl
- NA Inhibition (%) ([1]; 20 µM): 51.2%
- Relative Viability (%) [7]: 85.1%

Molecule: MetoclopraMide HCl
- NA Inhibition (%) ([1]; 20 µM): -36.9%
- Relative Viability (%) [7]: 126.3%

Molecule: COc1cc([C@@H]2c3cc4c(cc3[C@@H](O[C@@H]3O[C@@H]5CO[C@@H](C)O[C@H]5[C@H](O)[C@H]3O)[C@H]3COC(=O)[C@H]23)OCO4)cc(OC)c1O [etoposide]
- CC50 [17]: 260 µM

Molecule: Cc1ccc(N(CC2=NCCN2)c2cccc(O)c2)cc1 [Phentolamine Mesylate]
- inhibition at 20 µM [1, 21]: 72.3%
- IC50 [3, 20]: 1 µM
- viability at 20 µM [4]: 117%
- CC50 at 48 h ([5]; uninfected U937 cells): > 80 µM

Molecule: NCCc1ccc(O)c(O)c1 [Dopamine HCl]
- inhibition at 20 µM [1, 21]: -7.6%
- apoptosis [18]: can induce apoptosis in young striatal neurons through D1-like receptors, but not in neonatal neurons

Molecule: Salbutamol Sulfate
- NA Inhibition (%) ([1]; 20 µM): 6.4%
- Relative Viability (%) [7]: 114.7%

Molecule: Gabapentin HCl
- NA Inhibition (%) ([1]; 20 µM): -16.1%
- Relative Viability (%) [7]: 111.9%

Molecule: Lorcaserin HCl
- NA Inhibition (%) ([1]; 20 µM): 17.8%
- Relative Viability (%) [7]: 104.4%

Molecule: Cc1cccc(C(C)c2cnc[nH]2)c1C (stereo not shown) [Medetomidine HCl]
- inhibition at 20 µM [1, 21]: 59.7%
- IC50 [3, 20]: 12.5 µM
- viability at 20 µM [4]: 103%
- CC50 at 48 h [5]: > 80 µM

Molecule: OC(CNCC(O)C1CCc2cc(F)ccc2O1)C1CCc2cc(F)ccc2O1 (stereo not shown) [Nebivolol]
- inhibition at 20 µM [1, 19]: 66.4%
- IC50 [3, 20]: 9.8 µM
- viability at 20 µM [4]: 89.4%
- CC50 at 48 h ([5]; uninfected U937 cells): 33.3 µM

Molecule: Synephrine HCl
- NA Inhibition (%) ([1]; 20 µM): 10.3%
- Relative Viability (%) [7]: 99.1%

Molecule: CCCN[C@H]1CCc2nc(N)sc2C1 [Pramipexole]
- NA Inhibition (%) ([1]; 20 µM): -25.0
- Relative Viability (%) ([7]; human): 91.8

Molecule: Itopride hydrochloride
- NA Inhibition (%) ([1]; 20 µM): 9.1%
- Relative Viability (%) [7]: 109.7%

Molecule: Almotriptan Malate
- NA Inhibition (%) ([1]; 20 µM): 21.0%
- Relative Viability (%) [7]: 114.2%

Molecule: COc1ccc(C[C@@H](C)NC[C@H](O)c2ccc(O)c(NC=O)c2)cc1.COc1ccc(C[C@@H](C)NC[C@H](O)c2ccc(O)c(NC=O)c2)cc1.O=C(O)/C=C/C(=O)O [Formoterol Hemifumarate]
- NA Inhibition (%) ([1]; 20 µM): -23.1%
- Relative Viability (%) [7]: 121.9%

Molecule: CN1[C@@H]2CC[C@H]1C[C@@H](OC(c1ccccc1)c1ccccc1)C2 [Benztropine mesylate]
- inhibition at 20 µM [1, 21]: 57.8%
- viability at 20 µM [4]: 108%
- CC50 at 48 h ([5]; uninfected U937 cells): > 80 µM

Molecule: Hydroxyzine 2HCl
- NA Inhibition (%) ([1]; 20 µM): 18.4%
- Relative Viability (%) [7]: 101.7%

Molecule: CC(C)NCC(O)c1ccc(O)c(O)c1 (stereo not shown) [Isoprenaline HCl]
- inhibition at 20 µM [1, 19]: -12.4%
- apoptosis [18]: did not promote apoptosis in either group

Molecule: Ondansetron HCl
- NA Inhibition (%) ([1]; 20 µM): 4.7%
- Relative Viability (%) [7]: 98.5%
